# Experimental data published in publication PMC5895059, “Scaffold hopping from (5-hydroxymethyl) isophthalates to multisubstituted pyrimidines diminishes binding affinity to the C1 domain of protein kinase C” (PLoS ONE, 2018).
# Where “and” joins values, the source holds several entries; their conditions need not be identical. Equal values may be shown once.
# Molecular target: PKCα (Homo sapiens, UniProt P17252)
# Assay: [3H]PDBu displacement, 96-well plate filtration binding assay
# Conditions: for Displacement assay raw data (CCPM): single replicate wells; for Residual [^3H]PDBu binding to PKCα (% of control): 20 μM compound concentration, mean + SEM, n = 2–8
SMILES,"Displacement assay raw data (CCPM) (0,2 µM test substance)",Displacement assay raw data (CCPM) (1 µM test substance),Displacement assay raw data (CCPM) (4 µM test substance),Displacement assay raw data (CCPM) (10 µM test substance),Residual [^3H]PDBu binding to PKCα (% of control),Displacement assay raw data (CCPM) (20 µM test substance),Displacement assay raw data (CCPM) (30 µM test substance)
"CCCC(CCC)COC(=O)c1nc(CO)nc(OCC(CCC)CCC)c1C [Compound 2d, 2-propylpentyl 2-(hydroxymethyl)-5-methyl-6-[(2-propylpentyl)oxy]pyrimidine-4-carboxylate]",9740 CCPM and 9459 CCPM and 9651 CCPM and 5569 CCPM and 5686 CCPM and 5559 CCPM,7644 CCPM and 9362 CCPM and 9109 CCPM and 5694 CCPM and 5798 CCPM and 6238 CCPM,7518 CCPM and 9016 CCPM and 8738 CCPM and 4914 CCPM and 5158 CCPM and 5369 CCPM,7586 CCPM and 7877 CCPM and 7985 CCPM and 4832 CCPM and 5595 CCPM and 4913 CCPM,89.7 ± 7.1 % of control,7408 CCPM and 8501 CCPM and 8368 CCPM and 4542 CCPM and 5847 CCPM and 5492 CCPM,8520 CCPM and 7381 CCPM and 8758 CCPM and 5782 CCPM and 4556 CCPM and 4977 CCPM
"CCCCC(CC)OC(=O)c1nc(CO)nc(OC(CC)CCCC)c1C (centres unmarked) [Compound 2e, Heptan-3-yl 6-(heptan-3-yloxy)-2-(hydroxymethyl)-5-methylpyrimidine-4-carboxylate]",13386 CCPM and 12773 CCPM and 11586 CCPM and 9937 CCPM and 11273 CCPM and 11368 CCPM,12486 CCPM and 13520 CCPM and 13561 CCPM and 10438 CCPM and 10771 CCPM and 10331 CCPM,13244 CCPM and 12192 CCPM and 13129 CCPM and 11362 CCPM and 12373 CCPM and 12221 CCPM,12416 CCPM and 12269 CCPM and 12041 CCPM and 10898 CCPM and 11193 CCPM and 10978 CCPM,91.4 ± 2.3 % of control,11475 CCPM and 10474 CCPM and 10581 CCPM and 9805 CCPM and 9920 CCPM and 10092 CCPM,11584 CCPM and 10772 CCPM and 11119 CCPM and 8897 CCPM and 9568 CCPM and 9434 CCPM
"Cc1c(OCc2cccc(C(F)(F)F)c2)nc(CO)nc1C(=O)OCc1cccc(C(F)(F)F)c1 [Compound 2f, 3-(trifluoromethyl)benzyl 2-(hydroxymethyl)-5-methyl-6-[[3-(trifluoromethyl)benzyl]oxy]pyrimidine-4-carboxylate]",5892 CCPM and 5535 CCPM and 6214 CCPM and 6493 CCPM and 5681 CCPM and 5606 CCPM,5789 CCPM and 5065 CCPM and 5775 CCPM and 6129 CCPM and 5689 CCPM,5908 CCPM and 5351 CCPM and 5505 CCPM and 4754 CCPM and 5387 CCPM and 5468 CCPM,5951 CCPM and 5634 CCPM and 5541 CCPM and 5247 CCPM and 5397 CCPM and 4899 CCPM,90.5 ± 6.0 % of control,5509 CCPM and 4316 CCPM and 5047 CCPM and 4822 CCPM and 4931 CCPM and 4834 CCPM,5249 CCPM and 4747 CCPM and 5046 CCPM and 4792 CCPM and 4631 CCPM and 4673 CCPM
"COC(=O)c1nc(CO)nc(OCc2cccc(C(F)(F)F)c2)c1C [Compound 2g, Methyl 2-(hydroxymethyl)-5-methyl-6-[[3-(trifluoromethyl)benzyl]oxy]pyrimidine-4-carboxylate]",5444 CCPM and 5572 CCPM and 6419 CCPM and 5626 CCPM and 5372 CCPM and 5082 CCPM,5331 CCPM and 5641 CCPM and 6328 CCPM and 5502 CCPM and 5786 CCPM and 5467 CCPM,5858 CCPM and 5969 CCPM and 5764 CCPM and 5341 CCPM and 5546 CCPM and 5465 CCPM,6071 CCPM and 6111 CCPM and 6173 CCPM and 5469 CCPM and 6077 CCPM and 5316 CCPM,106.7 ± 5.0 % of control,5096 CCPM and 6099 CCPM and 5970 CCPM and 5477 CCPM and 5384 CCPM and 5474 CCPM,5416 CCPM and 5047 CCPM and 5574 CCPM and 5225 CCPM and 5482 CCPM and 5411 CCPM
"CCCCC(CC)OC(=O)c1nc(CO)nc(OCc2cccc(C(F)(F)F)c2)c1C (centres unmarked) [Compound 2h, Heptan-3-yl 2-(hydroxymethyl)-5-methyl-6-[[3-(trifluoromethyl)benzyl]oxy]pyrimidine-4-carboxylate]",5892 CCPM and 5535 CCPM and 6214 CCPM and 5732 CCPM and 5572 CCPM and 5002 CCPM,5789 CCPM and 5065 CCPM and 5775 CCPM and 5836 CCPM and 5313 CCPM and 4792 CCPM,5908 CCPM and 5351 CCPM and 5505 CCPM and 5457 CCPM and 5305 CCPM and 4736 CCPM,5951 CCPM and 5634 CCPM and 5541 CCPM and 4751 CCPM and 4877 CCPM and 4485 CCPM,86.8 ± 7.8 % of control,5509 CCPM and 4316 CCPM and 5047 CCPM and 4061 CCPM and 4136 CCPM and 4187 CCPM,5249 CCPM and 4747 CCPM and 5046 CCPM and 3715 CCPM and 4141 CCPM and 3683 CCPM
"CCCCCCCOc1nc(CO)nc(C(=O)OC(CC)CCCC)c1C (centres unmarked) [Compound 2i, Heptan-3-yl 6-(heptyloxy)-2-(hydroxymethyl)-5-methylpyrimidine-4-carboxylate]",4873 CCPM and 4870 CCPM and 5222 CCPM and 7916 CCPM and 8966 CCPM and 8933 CCPM,5191 CCPM and 5217 CCPM and 5062 CCPM and 8605 CCPM and 8987 CCPM and 9227 CCPM,5070 CCPM and 5217 CCPM and 5699 CCPM and 8553 CCPM and 8476 CCPM and 8686 CCPM,4806 CCPM and 5282 CCPM and 4681 CCPM and 7955 CCPM and 8861 CCPM and 7525 CCPM,87.2 ± 1.7 % of control,4663 CCPM and 4781 CCPM and 4927 CCPM and 7593 CCPM and 7766 CCPM and 7574 CCPM,4959 CCPM and 5003 CCPM and 5038 CCPM and 7682 CCPM and 7603 CCPM and 7191 CCPM
"CCCCCCCOc1nc(CO)nc(C(=O)OCc2cccc(C(F)(F)F)c2)c1C [Compound 2j, 3-(trifluoromethyl)benzyl 6-(heptyloxy)-2-(hydroxymethyl)-5-methylpyrimidine-4-carboxylate]",5070 CCPM and 6403 CCPM and 6171 CCPM and 8628 CCPM and 8277 CCPM and 7942 CCPM,5379 CCPM and 6351 CCPM and 6353 CCPM and 8453 CCPM and 7986 CCPM and 7710 CCPM,5347 CCPM and 4876 CCPM and 6039 CCPM and 8146 CCPM and 8038 CCPM and 8545 CCPM,4978 CCPM and 4910 CCPM and 4651 CCPM and 7817 CCPM and 7871 CCPM and 7636 CCPM,87.2 ± 6.0 % of control,5492 CCPM and 5042 CCPM and 4393 CCPM and 7145 CCPM and 7596 CCPM and 7314 CCPM,4511 CCPM and 5233 CCPM and 4215 CCPM and 6957 CCPM and 7148 CCPM and 7222 CCPM
"CCCCC(CC)Oc1nc(CO)nc(C(=O)OC)c1C (centres unmarked) [Compound 2k, Methyl 6-(heptan-3-yloxy)-2-(hydroxymethyl)-5-methylpyrimidine-4-carboxylate]",13386 CCPM and 11844 CCPM and 11381 CCPM and 5560 CCPM and 5090 CCPM and 5580 CCPM,12313 CCPM and 12292 CCPM and 11097 CCPM and 5334 CCPM and 5340 CCPM and 5211 CCPM,12488 CCPM and 11770 CCPM and 11977 CCPM and 5381 CCPM and 5013 CCPM and 5436 CCPM,12602 CCPM and 12313 CCPM and 12064 CCPM and 5438 CCPM and 4595 CCPM and 5996 CCPM,110.7 ± 5.5 % of control,12386 CCPM and 11227 CCPM and 11279 CCPM and 6057 CCPM and 6588 CCPM and 6792 CCPM,11742 CCPM and 11565 CCPM and 11279 CCPM and 5575 CCPM and 6135 CCPM and 5991 CCPM
